# From patent US12391683B2, “Therapeutic compounds and methods” (Actio Biosciences, Inc., priority 2022, dated 2025)
# Biological target: T1, TRPC6 channels (Homo sapiens, UniProt Q9Y210)
# T1 construct: expressed in transfected cells; host or cells: HEK293
# T1 sequence (Q9Y210 1-931): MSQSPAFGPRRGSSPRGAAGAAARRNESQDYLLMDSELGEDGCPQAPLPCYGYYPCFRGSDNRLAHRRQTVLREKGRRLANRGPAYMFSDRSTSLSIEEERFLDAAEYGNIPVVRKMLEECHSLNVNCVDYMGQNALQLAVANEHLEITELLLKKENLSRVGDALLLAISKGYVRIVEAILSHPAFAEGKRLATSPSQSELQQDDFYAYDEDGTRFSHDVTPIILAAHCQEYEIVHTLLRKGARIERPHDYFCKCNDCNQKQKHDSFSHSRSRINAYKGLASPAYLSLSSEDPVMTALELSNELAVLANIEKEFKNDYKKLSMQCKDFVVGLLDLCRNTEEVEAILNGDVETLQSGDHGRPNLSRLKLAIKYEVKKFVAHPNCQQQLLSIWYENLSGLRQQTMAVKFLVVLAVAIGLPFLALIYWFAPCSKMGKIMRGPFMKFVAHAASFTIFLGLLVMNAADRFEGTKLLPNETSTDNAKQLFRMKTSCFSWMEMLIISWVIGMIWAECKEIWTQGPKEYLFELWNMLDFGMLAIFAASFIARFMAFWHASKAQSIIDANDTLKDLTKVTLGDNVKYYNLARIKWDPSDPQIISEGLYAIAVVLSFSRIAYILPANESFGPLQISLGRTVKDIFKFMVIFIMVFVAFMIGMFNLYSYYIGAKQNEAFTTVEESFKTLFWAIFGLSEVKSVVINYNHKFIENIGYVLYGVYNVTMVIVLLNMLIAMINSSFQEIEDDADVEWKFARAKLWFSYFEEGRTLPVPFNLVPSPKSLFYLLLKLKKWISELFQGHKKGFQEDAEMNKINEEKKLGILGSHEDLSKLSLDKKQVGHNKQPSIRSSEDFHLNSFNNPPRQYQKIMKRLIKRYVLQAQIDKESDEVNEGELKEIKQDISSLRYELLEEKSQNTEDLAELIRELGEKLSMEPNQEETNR
# Assay: TRP Family FLIPR Assay, TRPC6
# Format: cell-based
# Conditions: HEK293 cells
# Method: The compound of Example 5 was tested for selectivity against a panel of Human TRP family ion channels in a TRP Family FLIPR Assay as described below. • 1. TRPC3 channels (human TRPC3 variant 1 gene, expressed in HEK293 cells). • 2. TRPC4 channels (human TRPC4 gene, expressed in HEK293 cells). • 3. TRPC5 channels (human TRPC5 gene, expressed in HEK293 cells). • 4. TRPC6 channels (human TRPC6 gene, expressed in HEK293 cells). • 5. TRPM2 channels (human TRPM2 gene, transiently expressed in HEK293 cells). • 6. TRPM3 channels (human TRPM3 gene, transiently expressed in HEK293 cells). • 7. TRPM4 channels (human TRPM4 gene, expressed in CHO cells). • 8. […]
# Data acquisition was performed via the FLIPR Control software supplied with the FLIPR System (MDS-AT) and data was analyzed using Microsoft Excel (Microsoft Corp., Redmond, WA) or GraphPad Prism. […]
# [formula] where Base is the response at low concentrations of test article, Max is the maximum response at high concentrations, xhalf the EC50, or IC50, the concentration of test article producing either half-maximal activation or inhibition, and rate is the Hill coefficient. […] No assumptions about the fit parameters was made; the fit parameters were determined by the algorithm.
# The effect of each test article was evaluated at eight (8) concentrations: 0.003, 0.01, 0.03, 0.1, 0.3, 1, 3 and 10 μM, n≤4 wells/concentration). […]
compound,measurement,setting,value
"CC(C)(O)c1cnc(N2C[C@@]3(CC[C@@H](F)[C@](C)(Cn4cnc5ccc(C#N)cc54)C3)OC2=O)cn1 (single isomer, unassigned) [Example 5]",EC50,"agonist mode, vs EMAX of Na-ATP 100 μM, read-out: EC50 hTRPC6",> 10 µM
same,IC50,"antagonist mode, activated with 10 μM Na-ATP, 0.003-10 μM, read-out: IC50 hTRPC6",> 10 µM
